Reference: the NIST ThermoML archive (doi:10.1021/acs.jced.8b00666)
Numbers after ± are expanded uncertainties.

Settings: Crystal; Heating/Cooling curves

Structure (SMILES) | Normal melting temperature [°C]
O.O=P(O)(O)O.O=P(O)(O)O [phosphoric acid hemihydrate] | 29.2 ± 0.21
C1CCCCC1 [cyclohexane] | 6.80 ± 0.2
